Reference: PMC7355430, “Imunofan—RDKVYR Peptide—Stimulates Skin Cell Proliferation and Promotes Tissue Repair” (Molecules, 2020)
Several values for one entry are separate records, joined by “and”; a condition that tells them apart may be missing. Equal values may be shown once. Peptide text beside a SMILES is read from it.

What was measured:
[1] = test system: BALB/c mice; experiment: Ear pinna injury, ear punch closure; type: in vivo, mouse
Protocol: Experiments were performed on 8–12 week-old female BALB/c (24 mice in total) and C57BL/6 mice (36 mice in total). All mice originated from the Centre for Experimental Medicine of the Medical University of Białystok, Poland, and were kept in the animal facility at the Nencki Institute of Experimental Biology throughout the course of the study. After delivery to the Nencki Institute animal facility, mice rested for at least two weeks for acclimatization before starting the experiment. Experiments were approved by the First Local Ethics Committee in Warsaw (permit No. 491/2013 and 542/2018). Animal experimentation was performed in accordance with EU directive 2010/63/EU, and all experiments were undertaken in such a way as to minimize discomfort and the number of animals used in the study.
Mice were placed individually in separate cages, weighed, and randomly divided into two groups within each mouse strain: The treatment group and the control group. Before the study all mice were randomly given numerical equivalents, and all experimenters performing further analysis were not aware of the experimental group and referred solely to those numbers. Similarly, vials containing IM (treatment) or saline (control) were encrypted and assigned to particular mice, so the person performing injections and ear photographs was not aware of mice background. Lastly, the person quantifying each ear hole closure was not aware of the group. Numerical equivalents of each mice were only decrypted at the end of the study. Before study each animal was anesthetized with Isoflurane (Iso-Vet; Piramal, UK), ears were quickly disinfected with 70% isopropanol and circular punches 2 mm in diameter were made in the center of both ear pinnae using disposable biopsy punches (Integra Miltex; Integra Life Sciences, Princeton, NJ, USA). Due to some occasional self-inflicted injuries (tearing off one or both ear lobes) during the course of the study, the measurement data from destroyed lobes were excluded from comparisons of the next time points. […]
To monitor the progress of wound healing, ears were photographed on the day of the injury (day 0, before and right after pinna injury), and on days 7, 14, 21, 28, 35, and 42. […] Finally, the area of the wound hole was outlined by hand on digitized images as an overlay, and the hole areas in the ears were evaluated using computer-assisted image analysis (ImageJ Software). […] The final number of analyzed ears was 23 per group on day 42. […] The final number of analyzed ears on day 42 was 32 in the control group and 16 in the treatment group. […]

[2] = test system: CTL, Th and NK cells; experiment: Immune cell activation in PBMCs, flow cytometry; type: cell-based, human; conditions: 0.1 and 1.0 µg/mL, 48 h, 5 independent experiments
Protocol: Immunological tests were conducted on human peripheral blood mononuclear cells, isolated from “buffy coats” using a ficoll density gradient (Histopaque, Sigma-Aldrich, St. Louis, MO, USA). Buffy coats for were obtained from blood of healthy anonymous donors of the Regional Center of Blood Donation and Blood Therapy in Gdansk, Poland. After washing in PBS, erythrocyte lysis, and cell counting (cell counter, Bio-Rad), the PBMCs were seeded onto a 24-well culture plate at a density of 10^6 cells/1 mL of RPMI 1640 (Penicillin/Streptomycin, 10% FBS) per well. After cell resting for 24 h, cells were stimulated with IM peptide (0.1 µg/mL and 1.0 µg/mL) for the next 48 h under appropriate conditions (37 °C, 5% CO2). The untreated cells were used as a negative control, whereas cells stimulated with LPS (1 µg/mL) and PHA (2.5 µg/mL) were a positive control. After incubation, the PBMCs were collected, washed with PBS, counted and prepared for flow cytometry analysis. 10^4 cells/100 µl were stained with monoclonal, fluorochrome-conjugated antibodies (anti-CD3, -CD4, -CD8, -CD16, -CD56, -CD25, -CD69, -CD71, -HLA-DR, -CD11c, -CD80, and -CD83) and incubated for 30 min in RT in the dark. Stained cells were analyzed using a flow cytometer (LSRFortessa, BD, USA). All data are presented as percentages due to the application of hospital diagnostic laboratory standards for immune cells analyses.

[3] = test system: human lymphocyte cultures; conditions: cited from earlier work
Text: Peptides play an important role in immunology, often through being epitopes for adaptive immune systems. Besides, they take part in mobilizing immune cells. […] Unfortunately, application of synthetic peptides can lead to unwanted immune activation or allergies and immunogenicity or immune-related adverse effects can limit the effectiveness of peptide-based therapies [[35],[36],[37 ...

## CC(C)[C@H](NC(=O)[C@H](CCCCN)NC(=O)[C@H](CC(=O)O)NC(=O)[C@@H](N)CCCNC(=N)N)C(=O)N[C@@H](Cc1ccc(O)cc1)C(=O)N[C@@H](CCCNC(=N)N)C(=O)O [IM, H-Arg-Asp-Lys-Val-Tyr-Arg-OH] (H-RDKVYR-OH)
[1]; 42 days after injury, hematoxylin and eosin
  histology of the epidermis in healed ear pinna: signs of parakeratosis
[1]; day 42 post-injury, 2 mm punch, s.c. 5.0 µg/g, 10 injections, mean ± SD, saline control 1.96 ± 0.48
  mean ear hole area: 1.69 ± 0.38 mm^2
[1]; day 42 post-injury, s.c. 5.0 µg/g, 10 injections, mean ± SD, saline control 37.9% ± 14.2%
  wound closure (ear hole closure): 46.2% ± 12.2% and 46%
[1]; ear pinna injury, as summarised in the abstract
  tissue repair in comparison to control: 8%
[2]
  immunogenic properties (activation of CTL, Th, NK): no immunogenic properties
[3]
  synthesis of IgE: suppress the synthesis
[3]; following stimulation with pokeweed mitogen
  production of IgM, IgG, and IgA: increase the production
